# Assays:
# rape = assay: Test B pre/postemergence rape; type: in vivo, Brassica napus; details: for Plant response rating, Rape: scale of 0 to 10 where 0 is no effect and 10 is complete control
# Outline: (§1)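 Response is a visual 0-to-10 score relative to untreated plants, where 0 means no effect and 10 means complete control, taken twelve to sixteen days after application. Treatments went onto soil at planting and onto foliage of 1- to 4-leaf plants, using a surfactant-containing non-phytotoxic solvent.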
# crabgrass = assay: Test B pre/postemergence crabgrass; type: in vivo, Digitaria sanguinalis
# Outline: as §1
# soybean = assay: Test B pre/postemergence soybean; type: in vivo, Glycine max; details: for Plant response rating, Soybean: scale of 0 to 10 where 0 is no effect and 10 is complete control
# Outline: as §1
# smallflower flatsedge = assay: Test B flood test smallflower flatsedge; type: in vivo, Cyperus difformis
# Outline: (§2)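 Plants were grown to the 2-leaf stage before treatment with test chemical, then held in a greenhouse for twelve to sixteen days. Injury was visually rated against untreated controls on a 0–10 scale, where 0 is no effect and 10 is complete control.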
# wheat = assay: Test B pre/postemergence wheat; type: in vivo, Triticum aestivum; details: for Plant response rating, Wheat: scale of 0 to 10 where 0 is no effect and 10 is complete control
# Outline: as §1
# velvetleaf = assay: Test B pre/postemergence velvetleaf; type: in vivo, Abutilon theophrasti; details: for Plant response rating, Velvetleaf: scale of 0 to 10 where 0 is no effect and 10 is complete control
# Outline: as §1
# purple nutsedge = assay: Test B pre/postemergence purple nutsedge; type: in vivo, Cyperus rotundus; details: for Plant response rating, Nutsedge: scale of 0 to 10 where 0 is no effect and 10 is complete control
# Outline: as §1
# corn = assay: Test B pre/postemergence corn; type: in vivo, Zea mays
# Outline: as §1
# wild oat = assay: Test B pre/postemergence wild oat; type: in vivo, Avena fatua; details: for Plant response rating, Wild oats: scale of 0 to 10 where 0 is no effect and 10 is complete control
# Outline: as §1
# duck salad = assay: Test B flood test duck salad; type: in vivo, Heteranthera limosa
# Outline: as §2
# giant foxtail = assay: Test B pre/postemergence giant foxtail; type: in vivo, Setaria faberii
# Outline: as §1
# sugar beet = assay: Test B pre/postemergence sugar beet; type: in vivo, Beta vulgaris; details: for Plant response rating, Sugarbeets: scale of 0 to 10 where 0 is no effect and 10 is complete control
# Outline: as §1
# cocklebur = assay: Test B pre/postemergence cocklebur; type: in vivo, Xanthium strumarium
# Outline: as §1
# pigweed = assay: Test B pre/postemergence pigweed; type: in vivo, Amaranthus retroflexus; details: for Plant response rating, Redroot pigweed: scale of 0 to 10 where 0 is no effect and 10 is complete control
# Outline: as §1
# rice = assay: Test B flood test rice; type: in vivo, Oryza sativa
# Outline: as §2
# morningglory = assay: Test B pre/postemergence morningglory; type: in vivo, Ipomoea hederacea; details: for Plant response rating, Morningglory: scale of 0 to 10 where 0 is no effect and 10 is complete control
# Outline: as §1
# [1] = Postemergence, Rate 250 g/ha, scale 0 to 10
# [2] = Preemergence, Rate 250 g/ha, scale 0 to 10, 0 is no effect, 10 is complete control
# [3] = Preemergence, Rate 500 g/ha, scale 0 to 10, 0 is no effect, 10 is complete control
# [4] = Rate 62 g/ha, Postemergence, scale 0 to 10, 0 no effect, 10 complete control
# [5] = Rate 125 g/ha, Postemergence, scale 0 to 10, 0 is no effect, 10 is complete control
# [6] = Postemergence, Rate 500 g/ha, scale of 0 to 10 where 0 is no effect and 10 is complete control
# [7] = Preemergence, Rate 62 g/ha, scale of 0 to 10 where 0 is no effect and 10 is complete control
# [8] = Preemergence, Rate 125 g/ha, scale of 0 to 10 where 0 is no effect and 10 is complete control
# [9] = Rate 62 g/ha, flood test species, Pre-emergence, visual evaluation after twelve to sixteen days
# [10] = Rate 125 g/ha, under heading Pre-emergence, flood test species, visual evaluation after twelve to sixteen days
# [11] = Rate 250 g/ha, Pre-emergence (flood test species), scale 0 to 10, 0 is no effect, 10 is complete control
# [12] = Rate 500 g/ha, Pre-emergence, flood test species, scale 0 to 10 (0 no effect, 10 complete control)
compound,measurement,setting,value
CC[Si](C)(C)Cn1c(=O)on(C(=O)N(c2ccc(F)cc2)C(C)C)c1=O [Compound 459],Rape plant response rating,rape; [1],0
same,"Plant response rating, Rape","rape; Preemergence, Rate 62 g/ha",0
same,"Plant response rating, Rape","rape; Preemergence, Rate 125 g/ha",0
same,Rape plant response rating,rape; [2],0
same,Rape plant response rating,rape; [3],0
same,Rape plant response rating,rape; [4],0
same,Rape plant response rating,rape; [5],0
same,Crabgrass plant response rating,crabgrass; [1],5
same,Crabgrass plant response rating,crabgrass; [6],8
same,"Plant response rating, Crabgrass",crabgrass; [7],5
same,"Plant response rating, Crabgrass",crabgrass; [8],7
same,Crabgrass plant response rating,crabgrass; [2],9
same,Crabgrass plant response rating,crabgrass; [3],10
same,Crabgrass plant response rating,crabgrass; [4],0
same,Crabgrass plant response rating,crabgrass; [5],1
same,Soybean plant response rating,soybean; [1],6
same,"Plant response rating, Soybean","soybean; Preemergence, Rate 62 g/ha",0
same,"Plant response rating, Soybean","soybean; Preemergence, Rate 125 g/ha",0
same,Soybean plant response rating,soybean; [2],0
same,Soybean plant response rating,soybean; [3],0
same,Soybean plant response rating,soybean; [4],3
same,Soybean plant response rating,soybean; [5],3
same,"Plant response rating, S. Flatsedge (0 to 10 scale, 0 is no effect, 10 is complete control)",smallflower flatsedge; [9],0
same,"S. Flatsedge plant response rating (0 to 10 scale, 0 is no effect, 10 is complete control)",smallflower flatsedge; [10],0
same,S. Flatsedge plant response rating,smallflower flatsedge; [11],0
same,S. Flatsedge plant response rating,smallflower flatsedge; [12],0
same,Wheat plant response rating,wheat; [1],0
same,"Plant response rating, Wheat","wheat; Preemergence, Rate 62 g/ha",0
same,"Plant response rating, Wheat","wheat; Preemergence, Rate 125 g/ha",0
same,Wheat plant response rating,wheat; [2],0
same,Wheat plant response rating,wheat; [3],0
same,Wheat plant response rating,wheat; [4],0
same,Wheat plant response rating,wheat; [5],0
same,Velvetleaf plant response rating,velvetleaf; [1],0
same,"Plant response rating, Velvetleaf","velvetleaf; Preemergence, Rate 62 g/ha",0
same,"Plant response rating, Velvetleaf","velvetleaf; Preemergence, Rate 125 g/ha",0
same,Velvetleaf plant response rating,velvetleaf; [2],0
same,Velvetleaf plant response rating,velvetleaf; [3],0
same,Velvetleaf plant response rating,velvetleaf; [4],0
same,Velvetleaf plant response rating,velvetleaf; [5],0
same,Nutsedge plant response rating,purple nutsedge; [1],0
same,"Plant response rating, Nutsedge","purple nutsedge; Preemergence, Rate 62 g/ha",0
same,"Plant response rating, Nutsedge","purple nutsedge; Preemergence, Rate 125 g/ha",0
same,Nutsedge plant response rating,purple nutsedge; [2],0
same,Nutsedge plant response rating,purple nutsedge; [3],0
same,Nutsedge plant response rating,purple nutsedge; [4],0
same,Nutsedge plant response rating,purple nutsedge; [5],0
same,Corn plant response rating,corn; [1],0
same,Corn plant response rating,corn; [6],0
same,"Plant response rating, Corn",corn; [7],0
same,"Plant response rating, Corn",corn; [8],0
same,Corn plant response rating,corn; [2],0
same,Corn plant response rating,corn; [3],0
same,Corn plant response rating,corn; [4],0
same,Corn plant response rating,corn; [5],0
same,Wild oats plant response rating,wild oat; [1],0
same,"Plant response rating, Wild oats","wild oat; Preemergence, Rate 62 g/ha",0
same,"Plant response rating, Wild oats","wild oat; Preemergence, Rate 125 g/ha",0
same,Wild oats plant response rating,wild oat; [2],0
same,Wild oats plant response rating,wild oat; [3],0
same,Wild oats plant response rating,wild oat; [4],0
same,Wild oats plant response rating,wild oat; [5],0
same,"Plant response rating, Ducksalad (0 to 10 scale, 0 is no effect, 10 is complete control)",duck salad; [9],0
same,"Ducksalad plant response rating (0 to 10 scale, 0 is no effect, 10 is complete control)",duck salad; [10],0
same,Ducksalad plant response rating,duck salad; [11],0
same,Ducksalad plant response rating,duck salad; [12],0
same,Giant foxtail plant response rating,giant foxtail; [1],2
same,Giant foxtail plant response rating,giant foxtail; [6],5
same,"Plant response rating, Giant foxtail",giant foxtail; [7],8
same,"Plant response rating, Giant foxtail",giant foxtail; [8],9
same,Giant foxtail plant response rating,giant foxtail; [2],10
same,Giant foxtail plant response rating,giant foxtail; [3],10
same,Giant foxtail plant response rating,giant foxtail; [4],0
same,Giant foxtail plant response rating,giant foxtail; [5],0
same,Sugarbeets plant response rating,sugar beet; [1],0
same,"Plant response rating, Sugarbeets","sugar beet; Preemergence, Rate 62 g/ha",0
same,"Plant response rating, Sugarbeets","sugar beet; Preemergence, Rate 125 g/ha",0
same,Sugarbeets plant response rating,sugar beet; [2],0
same,Sugarbeets plant response rating,sugar beet; [3],0
same,Sugarbeets plant response rating,sugar beet; [4],0
same,Sugarbeets plant response rating,sugar beet; [5],0
same,Cocklebur plant response rating,cocklebur; [1],0
same,Cocklebur plant response rating,cocklebur; [6],0
same,"Plant response rating, Cocklebur",cocklebur; [7],0
same,"Plant response rating, Cocklebur",cocklebur; [8],0
same,Cocklebur plant response rating,cocklebur; [2],0
same,Cocklebur plant response rating,cocklebur; [3],0
same,Cocklebur plant response rating,cocklebur; [4],0
same,Cocklebur plant response rating,cocklebur; [5],0
same,Redroot pigweed plant response rating,pigweed; [1],0
same,"Plant response rating, Redroot pigweed","pigweed; Preemergence, Rate 62 g/ha",0
same,"Plant response rating, Redroot pigweed","pigweed; Preemergence, Rate 125 g/ha",0
same,Redroot pigweed plant response rating,pigweed; [2],4
same,Redroot pigweed plant response rating,pigweed; [3],7
same,Redroot pigweed plant response rating,pigweed; [4],0
same,Redroot pigweed plant response rating,pigweed; [5],0
same,"Plant response rating, Rice (0 to 10 scale, 0 is no effect, 10 is complete control)",rice; [9],0
same,"Rice plant response rating (0 to 10 scale, 0 is no effect, 10 is complete control)",rice; [10],0
same,Rice plant response rating,rice; [11],0
same,Rice plant response rating,rice; [12],0
same,"Plant response rating, Morningglory","morningglory; Preemergence, Rate 62 g/ha",0
same,"Plant response rating, Morningglory","morningglory; Preemergence, Rate 125 g/ha",0
same,Morningglory plant response rating,morningglory; [2],0
same,Morningglory plant response rating,morningglory; [3],0
same,Morningglory plant response rating,morningglory; [4],6
same,Morningglory plant response rating,morningglory; [5],8
